Experimental data from ChEMBL document CHEMBL5143686, “Development of Azaindole-Based Frameworks as Potential Antiviral Agents and Their Future Perspectives” (J Med Chem, 2022).
In brackets after ≈: the same amount, converted by molar mass. One block for each compound: values may come before it.

Tests used:
[1] = system: Human immunodeficiency virus 1; experiment: Antiviral activity against HIV-1 JR-CSF assessed as inhibition of viral growth; format: functional, organism-based; settings: Human immunodeficiency virus 1, JR-CSF
[2] = Solubility of the compound at pH 5.4; format: physicochemical; settings: buffer
[3] = Basic dissociation constant, pKa of the compound
[4] = system: Human immunodeficiency virus 1; experiment: Antiviral activity against HIV-1 assessed as inhibition of viral growth; format: functional, organism-based
[5] = Oral bioavailability in rat; format: ADME, organism-based; settings: in vivo
[6] = Oral bioavailability in monkey; format: ADME, organism-based, Macaca mulatta; settings: rhesus monkey, in vivo
[7] = system: Human immunodeficiency virus 1; experiment: Antiviral activity against HIV-1 LAI T-tropic (X4) infected in human MT2 cells assessed as inhibition of viral growth by ELISA; format: functional, organism-based; settings: Human immunodeficiency virus 1, LAI T-tropic (X4)
[8] = system: Human immunodeficiency virus 1; experiment: Antiviral activity against HIV-1 SF-2 T-tropic (X4) infected in human MT2 cells assessed as inhibition of viral growth by ELISA; format: functional, organism-based; settings: Human immunodeficiency virus 1, SF-2 T-tropic (X4)
[9] = system: Human immunodeficiency virus 1; experiment: Antiviral activity against HIV-1 NL4-3 T-tropic (X4) infected in human MT2 cells assessed as inhibition of viral growth by ELISA; format: functional, organism-based; settings: Human immunodeficiency virus 1, NL4-3 T-tropic (X4)
[10] = system: Human immunodeficiency virus 1; experiment: Antiviral activity against HIV-1 Bal macrophage-tropic (R5) infected in human PM1 cells assessed as inhibition of viral growth by ELISA; format: functional, organism-based; settings: Human immunodeficiency virus 1, Bal macrophage-tropic (R5)
[11] = system: Human immunodeficiency virus 1; experiment: Antiviral activity against HIV-1 SF-162 macrophage-tropic (R5) infected in human PM1 cells assessed as inhibition of viral growth by ELISA; format: functional, organism-based; settings: Human immunodeficiency virus 1, SF-162 macrophage-tropic (R5)
[12] = system: Human immunodeficiency virus 1; experiment: Antiviral activity against HIV-1 JRFL macrophage-tropic (R5) infected in human PM1 cells assessed as inhibition of viral growth by ELISA; format: functional, organism-based; settings: Human immunodeficiency virus 1, JRFL macrophage-tropic (R5)
[13] = system: Human immunodeficiency virus 1; experiment: Antiviral activity against HIV-1 TLAV T-tropic (X4)/macrophage-tropic (R5) infected in human MT2 cells assessed as inhibition of viral growth by ELISA; format: functional, organism-based; settings: Human immunodeficiency virus 1, TLAV T-tropic (X4)/macrophage-tropic (R5)
[14] = Aqueous solubility of the compound; format: physicochemical
[15] = Oral bioavailability in dog; format: ADME, organism-based, Canis lupus familiaris; settings: in vivo

solubility [2]: > 12000 µg/mL
SMILES: COc1cnc(OC)c2c1c(C(=O)C(=O)N1CCN(C(=O)c3ccccc3)CC1)cn2COP(=O)(O)O.NCCCC[C@H](N)C(=O)O

pKa [3]: 7.93
SMILES: c1cc2cc[nH]c2cn1

pKa [3]: 6.94
SMILES: c1cnc2cc[nH]c2c1

bioavailability [5]: 90% | bioavailability [6]: 60%
SMILES: COc1ncc(OC)c2c(C(=O)C(=O)N3CCN(C(=O)c4ccccc4)CC3)c[nH]c12

solubility [14]: 170 µg/mL (≈ 418 µM) | bioavailability [5]: 19% | bioavailability [15]: 77% | bioavailability [6]: 24%
SMILES: COc1ccnc2[nH]cc(C(=O)C(=O)N3CCN(C(=O)c4ccccc4)C[C@@H]3C)c12
EC50 [7]: 2.68 nM | EC50 [8]: 26.5 nM | EC50 [9]: 2.94 nM | EC50 [10]: 15.5 nM | EC50 [11]: 3.46 nM | EC50 [12]: 1.47 nM | EC50 [13]: 0.85 nM

The next lines start with the compound.

SMILES: Cc1ncn(-c2ncc(F)c3c(C(=O)C(=O)N4CC5CN(C(=O)c6ccccc6)CC5C4)c[nH]c23)n1 (stereo not given)
IC50 [1]: 0.8 nM

SMILES: Cc1csc(-c2ccc(F)c3c(C(=O)C(=O)N4CCN(C(=O)c5ccccc5)CC4)c[nH]c23)n1
EC50 [4]: 0.0058 nM

SMILES: O=C(C(=O)N1CCN(C(=O)c2ccccc2)CC1)c1c[nH]c2c(-c3nccs3)ccc(F)c12
EC50 [4]: 0.057 nM

SMILES: c1cc2[nH]ccc2cn1
pKa [3]: 8.26
